Reference: PubChem BioAssay (NCI)
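Five concentrations, 48 hours, 96-well plates. GI50: concentration for 50% inhibition of growth. At the TGI there is no net growth.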 Where a SMILES comes first, the peptide text is derived from it. [ ]: non-standard residue; d: D form. The star is where a group is joined. NMeF = CN[CH](Cc1ccccc1)C(=O)O; NMeV = CN[CH](C(=O)O)C(C)C; Boc = CC(C)(C)OC(=O)*; OBn = c1ccc(CO*)cc1

Experiments:
Experiment in all cases: NCI-60 cell line screen, 48 h
[1] = tested on: CCRF-CEM leukemia
[2] = tested on: HS 578T breast
[3] = tested on: MDA-MB-231 breast
[4] = tested on: NCI/ADR-RES ovarian
[5] = tested on: RPMI-8226 leukemia
[6] = tested on: SK-MEL-28 melanoma
[7] = tested on: SK-OV-3 ovarian
[8] = tested on: SNB-19 CNS
[9] = tested on: UO-31 renal
[10] = tested on: HCT-116 colon

Compound: Oc1c(I)cc(I)cc1CNCCCN(Cc1ccccn1)Cc1ccccn1
- GI50 [1]: 1.54 µM
- TGI [1]: 50 µM
- GI50 [2]: 1.38 µM
- TGI [2]: 4.53 µM
- GI50 [3]: 1.01 µM
- TGI [3]: 2.12 µM
- GI50 [4]: 1.44 µM
- TGI [4]: 4.29 µM
- GI50 [5]: 1.34 µM
- TGI [5]: 4.47 µM
- GI50 [6]: 1.22 µM
- TGI [6]: 3.16 µM
- GI50 [7]: 1.01 µM
- TGI [7]: 2.18 µM
- GI50 [8]: 1.49 µM
- TGI [8]: 5.5 µM
- GI50 [9]: 0.786 µM
- TGI [9]: 1.46 µM

Compound: COc1ccc(C2C(C(=O)O)=C(COC(C)=O)Oc3cc4c(cc32)OCO4)cc1 (centres undefined)
- TGI [1]: > 100 µM
- TGI [10]: > 100 µM
- TGI [5]: > 100 µM
- TGI [6]: > 100 µM
- TGI [7]: > 100 µM
- TGI [8]: > 100 µM
- TGI [9]: > 100 µM

Compound: C=C1C(=O)[C@]23[C@H](O)[C@H]1CC[C@H]2[C@@]12CO[C@@]3(O)C[C@@H]1C(C)(C)CC[C@@H]2O
- TGI [1]: > 25 µM
- TGI [10]: 16.2 µM
- TGI [2]: 22.2 µM
- TGI [3]: 17.9 µM
- TGI [4]: > 25 µM
- TGI [5]: > 25 µM
- TGI [6]: 22.3 µM
- TGI [8]: > 25 µM
- TGI [9]: > 25 µM

Compound: Cc1nc2ccccc2c(=O)n1NC(=O)Cc1ccccc1
- TGI [1]: > 100 µM
- TGI [10]: > 100 µM
- TGI [2]: > 100 µM
- TGI [3]: > 100 µM
- TGI [5]: > 100 µM
- TGI [6]: > 100 µM
- TGI [7]: > 100 µM
- TGI [8]: > 100 µM
- TGI [9]: > 100 µM

Compound: FC1CCN(C2(c3cccs3)CCCCC2)CC1
- TGI [10]: > 100 µM
- TGI [3]: > 100 µM
- TGI [4]: > 100 µM
- TGI [5]: > 100 µM
- TGI [6]: > 100 µM
- TGI [7]: > 100 µM
- TGI [8]: > 100 µM
- TGI [9]: > 100 µM

Compound: CC(=O)c1ccc2c(c1)oc(=O)n2CCN(C)C
- TGI [1]: > 100 µM
- TGI [10]: > 100 µM
- TGI [2]: > 100 µM
- TGI [3]: > 100 µM
- TGI [4]: > 100 µM
- TGI [6]: > 100 µM
- TGI [7]: > 100 µM

Compound: Brc1cccc(C2(CCCC3(c4cccc(Br)n4)OCCO3)OCCO2)n1
- TGI [10]: > 100 µM
- TGI [3]: > 100 µM
- TGI [4]: > 100 µM
- TGI [5]: > 100 µM
- TGI [6]: > 100 µM
- TGI [7]: > 100 µM
- TGI [8]: > 100 µM
- TGI [9]: > 100 µM

Compound: CCC(=N\NC(N)=S)/C(C)=N/O
- TGI [10]: > 100 µM
- TGI [2]: > 100 µM
- TGI [3]: > 100 µM
- TGI [4]: > 100 µM
- TGI [5]: > 100 µM
- TGI [6]: > 100 µM
- TGI [7]: > 100 µM
- TGI [8]: > 100 µM
- TGI [9]: > 100 µM

Compound: CC[C@@]1(O)C(=O)OCc2c1cc1n(c2=O)Cc2c-1nc1ccccc1c2/C=N\NC(=O)C(N)CS (some centres undefined)
- TGI [10]: > 100 µM
- TGI [2]: > 100 µM
- TGI [3]: > 100 µM
- TGI [4]: > 45.2 µM
- TGI [5]: > 100 µM
- TGI [6]: > 100 µM
- TGI [7]: > 100 µM
- TGI [8]: > 31.6 µM
- TGI [9]: 14.7 µM

Compound: Oc1[nH]c2ccccc2c1N=NC(=S)N1CCCCCC1
- TGI [10]: 1.9 µM
- TGI [3]: 3.35 µM
- TGI [4]: 1.42 µM
- TGI [5]: 4.15 µM
- TGI [6]: 7.61 µM
- TGI [7]: 4.79 µM
- TGI [8]: 15.4 µM
- TGI [9]: 3.08 µM

Compound: CC(=O)Oc1ccc(OC(Oc2ccccc2)c2ccccc2)cc1 (centres undefined)
- TGI [1]: 72.2 µM
- TGI [10]: 59 µM
- TGI [3]: 48.8 µM
- TGI [4]: 90.3 µM
- TGI [6]: 69 µM
- TGI [7]: > 100 µM
- TGI [8]: 77.5 µM
- TGI [9]: 88.9 µM

Compound: CC(NC(=O)C(C)C(=O)NCc1ccc(C(F)(F)F)cc1)C(N)=O (centres undefined)
- TGI [1]: > 100 µM
- TGI [10]: > 100 µM
- TGI [2]: > 100 µM
- TGI [3]: > 100 µM
- TGI [4]: > 100 µM
- TGI [5]: > 100 µM
- TGI [7]: > 100 µM
- TGI [8]: > 100 µM
- TGI [9]: > 100 µM

Compound: CC(C)C(NC(=O)OC(C)(C)C)C(=O)N(C)C(Cc1ccccc1)C(=O)N(C)C(C(=O)N(C)C(C(=O)OCc1ccccc1)C(C)C)C(C)C (centres undefined) (Boc-V[NMeF][NMeV][NMeV]-OBn; configuration not given here)
- TGI [1]: > 100 µM
- TGI [10]: > 100 µM
- TGI [5]: > 100 µM
- TGI [8]: > 100 µM
- TGI [9]: > 100 µM

Compound: CC(=O)O[C@H]1CC[C@@]2(C)C(=CC[C@@H]3[C@@H]2CC[C@]2(C)c4nc(N)c(C#N)cc4C[C@@H]32)C1
- TGI [1]: > 89.5 µM
- TGI [10]: > 100 µM
- TGI [2]: > 95.2 µM
- TGI [3]: > 100 µM
- TGI [5]: > 100 µM
- TGI [6]: > 100 µM
- TGI [7]: > 83.8 µM
- TGI [8]: > 100 µM
- TGI [9]: > 100 µM

Compound: c1ccc(C(CCN2CCCC2)c2ccccn2)cc1 (centres undefined)
- TGI [10]: > 100 µM
- TGI [2]: > 100 µM
- TGI [3]: > 100 µM
- TGI [4]: > 100 µM
- TGI [5]: > 100 µM
- TGI [6]: > 100 µM
- TGI [7]: > 100 µM
- TGI [8]: > 100 µM
- TGI [9]: > 100 µM

Compound: CCN(CC)C(=O)c1c(N2CCOCC2)cc(N(CC)CC)oc1=O
- TGI [1]: > 100 µM
- TGI [10]: > 100 µM
- TGI [5]: > 100 µM
- TGI [6]: > 100 µM
- TGI [7]: > 100 µM
- TGI [8]: > 100 µM
- TGI [9]: > 100 µM

Compound: Cc1ccc(NC(=O)c2cccc([N+](=O)[O-])c2O)c(C)c1
- TGI [1]: > 100 µM
- TGI [10]: > 100 µM
- TGI [5]: 92.7 µM
- TGI [6]: > 100 µM
- TGI [7]: > 100 µM
- TGI [8]: > 100 µM
- TGI [9]: 35.1 µM

Compound: O=c1c2cc(-c3ccccc3)cnc2sn1-c1ccc([N+](=O)[O-])cc1
- TGI [1]: > 100 µM
- TGI [10]: > 100 µM
- TGI [3]: > 100 µM
- TGI [4]: > 100 µM
- TGI [5]: > 100 µM
- TGI [6]: > 100 µM
- TGI [7]: > 100 µM
- TGI [8]: > 100 µM
- TGI [9]: > 100 µM

Compound: Cc1ccc(S(=O)(=O)n2cc(-c3cnc(N)c(Br)n3)c3ccccc32)cc1
- TGI [2]: 2.97 µM
- TGI [3]: > 24 µM
- TGI [4]: > 25.7 µM
- TGI [5]: 49.6 µM
- TGI [6]: > 57 µM
- TGI [7]: > 100 µM
- TGI [8]: > 46.1 µM
- TGI [9]: > 100 µM

Compound: C/C=C/C=C/C1=NN(c2cccc(S(=O)(=O)O)c2)C2(C1)SCC(=O)N2c1nc2ccccc2s1 (centres undefined)
- TGI [1]: 77.7 µM
- TGI [10]: > 100 µM
- TGI [2]: > 100 µM
- TGI [3]: > 100 µM
- TGI [4]: > 100 µM
- TGI [5]: > 100 µM
- TGI [6]: > 100 µM
- TGI [8]: > 100 µM
- TGI [9]: > 100 µM

Compound: CN(C)CCCNC(=O)c1cc(NC(=O)c2cc(NC(=O)c3cc(NC(=O)CCCn4ccc(CO)c4CO)cn3C)cn2C)cn1C
- TGI [1]: > 100 µM
- TGI [10]: > 100 µM
- TGI [2]: 98.2 µM
- TGI [3]: > 100 µM
- TGI [4]: > 100 µM
- TGI [6]: 42.1 µM
- TGI [7]: > 100 µM
- TGI [8]: > 100 µM
- TGI [9]: > 100 µM

Compound: C=C1c2nc3ccccc3n2C=C(c2ccc(Cl)cc2)N1c1ccccc1
- TGI [1]: > 100 µM
- TGI [10]: 33.7 µM
- TGI [3]: > 100 µM
- TGI [4]: 29.8 µM
- TGI [5]: > 100 µM
- TGI [6]: 24 µM
- TGI [7]: 34.7 µM
- TGI [8]: 19.6 µM
- TGI [9]: 32.9 µM

Compound: c1ccc([C@H]2CN3CCSC3=N2)cc1
- TGI [1]: > 100 µM
- TGI [10]: > 100 µM
- TGI [3]: > 100 µM
- TGI [4]: > 100 µM
- TGI [6]: > 100 µM
- TGI [7]: > 100 µM
- TGI [8]: > 100 µM
- TGI [9]: > 100 µM

Compound: ClCc1c(-c2ccccc2)nn(-c2ccccc2)c1CCl
- TGI [10]: 25.1 µM
- TGI [4]: > 100 µM
- TGI [5]: 7.86 µM
- TGI [6]: 32.3 µM
- TGI [8]: 43 µM
- TGI [9]: 45 µM
